Assay results taken from patent US20240382482A1, “PLASMA KALLIKREIN INHIBITORS” (TAKEDA PHARMACEUTICAL COMPANY LIMITED, priority 2021, published 2024).

Legend:
[1] = target: human activated kallikrein enzyme (Homo sapiens, UniProt P03952); assay: Inhibition of human activated kallikrein enzyme, fluorogenic peptide substrate assay (500 pM enzyme format); format: biochemical; details: 500 pM activated kallikrein, 300 μM PFR-AMC substrate, 30 min preincubation, 10 min reaction, room temperature; read-out: Primary Dose Response Assay: Average EC50
Summary of the method: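 500 pM enzyme preincubated 30 min at room temperature with inhibitor in 20 mM Tris pH 7.5, 150 mM NaCl, 1 mM EDTA, 0.1% PEG-400, 0.1% Triton X-100. Reaction started with 300 μM PFR-AMC and run 10 min at room temperature. AMC fluorescence read at ex 380/em 460 nm, and EC50 values reported as ranges.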

[2] = target: T1, plasma kallikrein (Homo sapiens, UniProt P03952); assay: Neat human plasma assay (fluorogenic peptide), contact pathway-activated plasma; format: biochemical; details: sodium citrate human plasma (78% final), 10 nM human FXIIa, 100 μM PFR-AMC, room temperature
T1 construct: added to sodium citrate collected human or rat plasma in a 96-well microplate; from tissue
Procedure: To analyze inhibition of plasma kallikrein in an ex vivo setting, the potency of compounds was measure in contact pathway-activated plasma assays. In a fluorogenic peptide substrate assay, test compounds dissolved in DMSO were added to sodium citrate collected human or rat plasma in a 96-well microplate. Alternatively, citrated plasma was collected from rats administered the compounds orally or by IV. 10 nM of human FXIIa (Enzyme Research Laboratories) diluted in PKa buffer (20 mM Tris-HCl, pH 7.5, 150 mM NaCl, 1 mM EDTA, 0.1% PEG-8000, and 0.1% Triton X-100) was added to the plasma, followed by the 100 μM of the profluorescent, synthetic plasma kallikrein substrate PFR-AMC (also diluted in PKa buffer). Final plasma concentration in the reaction was 78%. Fluorescence was immediately monitored by excitation/emission wavelengths of 360 nm/480 nm respectively over a period of 5 minutes in a microplate reader. The resulting linear increase in fluorescence emission (reflecting PKa proteolysis of PFR-AMC substrate) was fit to extract a proteolytic rate (fluorescent units over time), and this rate was subsequently plotted against compound inhibitor concentration. Resulting plots were fit to a standard 4-parameter IC50/IC90 equation to determine min/max values, IC50/90, and slope. All experimental steps were performed at room temperature.

Sequence of human activated kallikrein enzyme (P03952 391-638 limits assumed): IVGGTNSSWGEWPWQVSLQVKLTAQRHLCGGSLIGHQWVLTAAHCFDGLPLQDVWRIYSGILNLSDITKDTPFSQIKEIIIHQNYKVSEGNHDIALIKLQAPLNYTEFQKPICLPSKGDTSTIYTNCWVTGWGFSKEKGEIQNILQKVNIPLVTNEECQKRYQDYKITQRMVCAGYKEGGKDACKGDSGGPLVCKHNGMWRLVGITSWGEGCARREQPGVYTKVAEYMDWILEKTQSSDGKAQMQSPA
Sequence of human activated kallikrein enzyme (P03952 20-390 partner limits assumed): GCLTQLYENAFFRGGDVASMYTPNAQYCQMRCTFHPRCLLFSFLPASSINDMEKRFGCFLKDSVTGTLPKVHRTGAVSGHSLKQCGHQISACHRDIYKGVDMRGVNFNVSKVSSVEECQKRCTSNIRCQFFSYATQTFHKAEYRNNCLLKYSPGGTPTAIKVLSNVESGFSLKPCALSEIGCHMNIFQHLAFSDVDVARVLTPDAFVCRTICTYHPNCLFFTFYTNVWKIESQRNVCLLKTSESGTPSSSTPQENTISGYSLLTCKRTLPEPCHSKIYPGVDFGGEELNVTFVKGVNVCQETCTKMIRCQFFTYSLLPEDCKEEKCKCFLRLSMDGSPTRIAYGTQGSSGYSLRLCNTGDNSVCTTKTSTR
T1 sequence (P03952 391-638 limits assumed): as the sequence (P03952 391-638 limits assumed) above
T1 sequence (P03952 20-390 partner limits assumed): as the sequence (P03952 20-390 partner limits assumed) above

SMILES	EC50 [1]	IC90 [2]
CN1CCN(c2cc(C3CC3)cn3cc(CNc4cc(NC(=O)Cc5ncn6ccc(Cl)cc56)ncn4)nc23)CC1 [Example 17, 2-(7-chloroimidazo[1,5-a]pyridin-1-yl)-N-(6-(((6-cyclopropyl-8-(4-methylpiperazin-1-yl)imidazo[1,2-a]pyridin-2-yl)methyl)amino)pyrimidin-4-yl)acetamide]	≤ 5 nM	≤ 500 nM
Cc1cc(N)nc(C)c1CNc1cc(OCc2cn3cc(C4CC4)cc(C4(F)COC4)c3n2)ncn1 [Example 109, N-((6-amino-2,4-dimethylpyridin-3-yl)methyl)-6-((6-cyclopropyl-8-(3-fluorooxetan-3-yl)imidazo[1,2-a]pyridin-2-yl)methoxy)pyrimidin-4-amine]	≤ 5 nM	≤ 500 nM
Cc1cc(N)nc(C)c1CNc1cc(OCc2cn3cc(C4CC4)cc(CO)c3n2)ncn1 [Example 113, (2-(((6-(((6-amino-2,4-dimethylpyridin-3-yl)methyl)amino)pyrimidin-4-yl)oxy)methyl)-6-cyclopropylimidazo[1,2-a]pyridin-8-yl)methanol]	≤ 5 nM	5000 to 25000 nM
N#Cc1cc(C2CC2)cn2cc(CNc3ccnc(NC(=O)Cc4ncn5ccc(Cl)cc45)c3)nc12 [Example 30, 2-(7-chloroimidazo[1,5-a]pyridin-1-yl)-N-(4-(((8-cyano-6-cyclopropylimidazo[1,2-a]pyridin-2-yl)methyl)amino)pyridin-2-yl)acetamide]	≤ 5 nM	500 to 5000 nM
Cc1cc(N)nc(C)c1CNc1cc(OCc2cn3cc(C4CC4)ccc3n2)ccn1 [Example 110, 5-(((4-((6-cyclopropylimidazo[1,2-a]pyridin-2-yl)methoxy)pyridin-2-yl)amino)methyl)-4,6-dimethylpyridin-2-amine]	≤ 5 nM	5000 to 25000 nM
